Assay results published in US6180599A, “Pharmaceutical composition, containing medium-chain fatty acids as active ingredients, for dental caries and periodontal disease” (priority 1997, dated 2001).

How the values were obtained:
[1] = test system: dental caries; experiment: Inhibitory effect on the occurrence of dental caries in rats; format: in vivo, Sprague-Dawley rats; conditions: for Linear unit for fissure-region dental caries, Dm: dentine moderate; for Linear unit for fissure-region dental caries, Dm / Linear unit for fissure-region dental caries, Ds / Linear unit for fissure-region dental caries, E: 50 mM in feed, 120 days; for Linear unit for fissure-region dental caries, Ds: dentine slight; for Linear unit for fissure-region dental caries, E: enamel only
Method: This experiment was carried out utilizing a dental caries experiment model in rats of Navia (1977) as followings.
Experimental animals were 48 (male: 24, female: 24) Sprague-Dawley rats, four-weeks old and of […] average body weight. These animals are equally divided into three groups according to sex and body weight at the early stage, and all these animals have clinically healthy teeth.
Experimental animals are divided into 3 groups according to diet, which are a control group of normal feed, a group of dental caries-induced feed and a experimental group of sodium laurate-added feed. Normal feed is solid feed for rodents (SAMYANG Co., Korea), caries-induced feed is prepared by mixing 40% sugar, 32% powdered milk, 21% flour, 5% yeast, 2% anchovy, 0.01% vitamin B and 0.01% vitamin C. Sodium laurate-added feed was prepared by adding 50 mM of sodium laurate to caries-induced feed. All the experimental animals were allowed water ad libitum.
One hundred twenty days later, all experimental animals were euthanized. The maxilla and mandible were separated, and fixed in 10% neutral formalin. A dental caries index was measured by the method originated by Keyes and modified by Larson (1981). Food debris remaining in the fissure of molar of maxilla and mandible was removed by a Barbed Broach tool used in clinical dentistry, then the molar teeth of maxilla and mandible were cut so that they could include the first, second, and third molar by using an Exact cutting system (Exact-Apprateb, Hamburg, Germany) equipped with a diamond-treated saw. Cutting of the molar teeth of both maxilla and mandible was carried out by a handpiece equipped with cutting disc (thickness, 0.004 inch; diameter, 0.75 inch). The direction of the cutting was from the mesial side of the first molar to the distal side of the third molar. The samples which were cut were stained in order to measure the dental caries-index easily. Staining was carried out as follows; samples were cultured with 0.02% solution of ammonium prupurate (murexide) for 12 hours, washed with flowing water for 10 minutes, then treated with 0.2% of ammoniacal silver nitrate for 30 seconds and washed with flowing water for 2 minutes before measurement. The degree of the affection of dental caries at the cut surface is classified into enamel only (E) when dental caries is affected only to enamel; and into slight (Ds), moderate (Dm) and extensive (Dx) according to the extent of affection when dental caries is affected further into the dentine. The total sum was calculated by adding up marks within the range of linear units administered to each tooth according to the modified method of Larson (1981).
Statistical analysis of each group concerning the linear unit, showing the extent of dental caries, was carried out using the Mann-Whitney test. Statistical analysis according to the feed and the region where the teeth were placed (maxilla or mandible) was carried out by the Kruskal-Wallis test. If more than 2/3 of the dental crown was lost due to serious abrasion and if it was impossible to observe in the process of treating samples, these teeth were excluded in the statistics.

[2] = test system: S. mutans JC-2; experiment: Inhibitory effect on extracellular polysaccharide synthesis, standard strain; format: cell-based, Streptococcus mutans; conditions: 1 mM
Method: (§1) In order to identify the effect by which medium-chain fatty acids inhibit plaque matrix formation, inhibitory effect and concentration of extracellular polysaccharide synthesis were determined in seven kinds of standard cariogenic plaque bacteria. Also, the inhibitory effect of extracellular polysaccharide synthesis for 20 kinds of cariogenic plaque bacteria, separated from the human oral cavity, was measured. Liquid culture media used were: Todd-Hewitt broth of Streptococcus, Lactobacilli MRS broth of Lactobacillus and Brain Heart Infusion broth of Actinomyces. 0.1 ml of bacterial (or cell) suspension (OD600 =0.5) of each bacteria was inoculated to 5.9 ml of culture media containing 1 mM of medium-chain fatty acids and 2% of glucose, and was cultured for 24^~ 48 hours in 10% CO2 incubator. After culturing, the resultant was centrifuged to precipitate at 5,000×g for 15 minutes, then soluble extracellular polysaccharide was separated and purified from the supernatant and insoluble extracellular polysaccharide from the cell pellet, and then these were quantified.

[3] = test system: S. mutans BHT; experiment: as above; format: cell-based, Streptococcus mutans; conditions: 1 mM
Method: as §1

[4] = test system: S. mutans 10449; experiment: as above; format: cell-based, Streptococcus mutans; conditions: 1 mM
Method: as §1

CCCCCCCCCCCC(=O)[O-].[Na+] [C12, sodium laurate]
Linear unit, Total (average ± standard deviation) ([1]; 164 teeth, P < 0.01 vs caries-inducing feed (3.01 ± 2.35), normal feed 2.34 ± 1.37): 1.71 ± 1.26
Linear unit for fissure-region dental caries, Dm ([1]; Mandible, 1st molar): 0
Linear unit for fissure-region dental caries, Ds ([1]; Mandible, 1st molar): 7
Linear unit for fissure-region dental caries, E ([1]; Mandible, 1st molar): 72
Linear unit for fissure-region dental caries, Dm ([1]; Mandible, 2nd molar): 0
Linear unit for fissure-region dental caries, Ds ([1]; Mandible, 2nd molar): 10
Linear unit for fissure-region dental caries, E ([1]; Mandible, 2nd molar): 55
Linear unit for fissure-region dental caries, Dm ([1]; Mandible, 3rd molar): 0
Linear unit for fissure-region dental caries, Ds ([1]; Mandible, 3rd molar): 0
Linear unit for fissure-region dental caries, E ([1]; Mandible, 3rd molar): 16
Linear unit for fissure-region dental caries, Dm ([1]; Maxilla, 1st molar): 0
Linear unit for fissure-region dental caries, Ds ([1]; Maxilla, 1st molar): 1
Linear unit for fissure-region dental caries, E ([1]; Maxilla, 1st molar): 61
Linear unit for fissure-region dental caries, Dm ([1]; Maxilla, 2nd molar): 0
Linear unit for fissure-region dental caries, Ds ([1]; Maxilla, 2nd molar): 0
Linear unit for fissure-region dental caries, E ([1]; Maxilla, 2nd molar): 41
Linear unit for fissure-region dental caries, Dm ([1]; Maxilla, 3rd molar): 0
Linear unit for fissure-region dental caries, Ds ([1]; Maxilla, 3rd molar): 0
Linear unit for fissure-region dental caries, E ([1]; Maxilla, 3rd molar): 17
dental caries in experimental animals (in words) ([1]; sodium laurate-added feed): noticeably reduced dental caries in experimental animals
Extracellular polysaccharide, insoluble ([2]; 2% glucose, 24-48 hours, control 1.1 ± 0.2): 0.1 ± 0.1 µg/mL
Extracellular polysaccharide, soluble ([2]; 2% glucose, 24-48 hours, control 34.4 ± 3.9): 0.6 ± 0.5 µg/mL
Inhibitory rate, soluble ([2]; vs control): 98%
Extracellular polysaccharide, soluble ([3]; 2% glucose, 24-48 hours, control 31.5 ± 3.7): 4.1 ± 0.8 µg/mL
Inhibitory rate, soluble ([3]; vs control): 87%
Extracellular polysaccharide, insoluble ([4]; 2% glucose, 24-48 hours, control 0.8 ± 0.3): 0.2 ± 0.1 µg/mL
Extracellular polysaccharide, soluble ([4]; 2% glucose, 24-48 hours, control 74.6 ± 1.8): 15.5 ± 3.8 µg/mL
Inhibitory rate, soluble ([4]; vs control): 79%
